The values that follow are results of earlier work, collected in PMC6503469, “The Use of Molecular Descriptors To Model Pharmaceutical Uptake by a Fish Primary Gill Cell Culture Epithelium” (Environmental Science & Technology, 2018).

Where a name gives a salt, the structure may show the parent alone. Read-outs that look alike come from different tables or passages of the source.

For data set [1] the following is noted: source not stated; for log S: molecular descriptor (solubility); for log D: octanol–water distribution coefficient at pH 7.4; for log Kow: octanol–water partition coefficient; for PSA: polar surface area; for pKa: molecular descriptor.
On the set-up of data set [2]: method as in PMID 28853873. The conditions noted are these: adult zebrafish.
Test in data set [3]: not given
The source holds these as a separate data set.

Details of data set [4]: method as in Nallani et al 2012. The conditions noted are these: pH 7.4, exposed to 83 µg/L for 7 days; ref Nallani et al 2012.
Details of data set [5]: method as in Chen et al 2017. The conditions noted are these: pH 7.6, after 6h exposure to 12.5 µg/L; ref Chen et al 2017.

`NC(=O)N1c2ccccc2C=Cc2ccccc21` [carbamazepine]: in data set [1], the “log S” value is on record as “–3.2”, the “log D” value is recorded as 2.28, the “log Kow” value is listed as 2.28 and the PSA is 46.33 Å^2. Besides, in data set [2], the BCFss is recorded as 1.41 ± 7.13 L kg^–1. Further, the Plasma concentration (pH 7.7, after 10 days exposed to 43 µg/L, ref Lahti et al 2011) is 0.025 µg/mL.

Take `C[C@H]1C[C@H]2[C@@H]3CCC4=CC(=O)C=C[C@]4(C)[C@@]3(Cl)[C@@H](O)C[C@]2(C)[C@@]1(O)C(=O)CO` [beclomethasone]: in data set [1], the pKa was 13.85, the “log D” value was 4.16, the “log Kow” value is 3.49 and the PSA is reported as 106.97 Å^2. Further, the Plasma concentration in data set [3] (pH 7.4, 21 days exposure to 816 ng/L, dipropionate rapidly metabolized, combined values, ref Margiotta-Casaluci et al. 2016) was 0.06 ± 0.035 µg/mL.

For the compound `CC(=O)CC(c1ccccc1)c1c(O)c2ccccc2oc1=O` (centres unmarked) [warfarin], in data set [1], the “log S” value was “–3.8”, the pKa was 5.08 and the “log D” value is on record as 0.16.

Turning to `O=C(O)Cc1ccccc1Nc1c(Cl)cccc1Cl` [diclofenac, diclofenac sodium salt], in data set [1], the “log S” value is recorded as “–4.8”, the “log D” value was 1.22, the “log Kow” value is on record as 1.9 and the PSA is listed as 52.16 Å^2. Besides, the Plasma concentration in data set [3] (pH 7.6, after 48h exposure to 24 µg/L, ref Bickley et al 2017) is 0.205 µg/mL. Moreover, the Plasma concentration in data set [3] (pH 7.6, after 21 days exposed to 0.95 µg/L, ref Bickley et al 2017) is 0.026 µg/mL.

As to `C#C[C@]1(O)CC[C@H]2[C@@H]3CCC4=CC(=O)CC[C@@H]4[C@H]3CC[C@@]21C` [norethindrone, norethindrone-19], in data set [1], the pKa is given as 17.59, the “log D” value is listed as 2.98, the “log Kow” value is on record as 3.15 and the PSA is on record as 37.30 Å^2. Moreover, the Plasma concentration in data set [4] was 0.95 µg/mL.

As for `CC(C(=O)O)c1cccc(C(=O)c2ccccc2)c1` (centres unmarked) [ketoprofen], in data set [1], the “log D” value is 0.06, the “log Kow” value is given as 0.97 and the PSA is given as 54.37 Å^2. In addition, the Plasma concentration (pH 7.4, after 14 days exposure to 91 µg/L, ref Cuklev et al 2012) was 0.001 µg/mL.

Regarding `Cc1ccc(C)c(OCCCC(C)(C)C(=O)O)c1` [gemfibrozil], in data set [1], the “log S” value was “–4”, the pKa is 4.42, the pH-dependent lipophilicity (log D) is on record as 1.40 and the “log Kow” value was 4.77. In addition, in data set [1], the PSA was 46.53 Å^2. Also, the Plasma concentration in data set [5] was 0.183 µg/mL.

Take `CC(=O)Nc1nnc(S(N)(=O)=O)s1` [acetazolamide]: the PSA in data set [1] is reported as 115.04 Å^2.

As for `CC(C)Cc1ccc(C(C)C(=O)O)cc1` (centres unmarked) [ibuprofen, ibuprofen sodium salt], in data set [1], the “log S” value is reported as “–3.5”, the “log D” value was 0.29, the “log Kow” value is 2.48 and the PSA is reported as 40.10 Å^2. In addition, the Plasma concentration in data set [3] (pH 7.4, after 24h exposed to 107 µg/L, ref Patel et al 2016) is 0.55 µg/mL.

In general, log D refers to lipophilicity at a set pH, counting ionised and neutral species. The pKa is the pH at which an ionisable group is half protonated.
